Test results as given in article PMC7494652 (Bioorganic & medicinal chemistry letters, 2020).
Where two headings read alike, the source gives them in different places.

What was measured:
[1] = Solubility in sodium phosphate buffer; assay type: physicochemical
human sEH = biological target: T1, human sEH (Homo sapiens, UniProt P34913); assay: Inhibition of human sEH, kinetic fluorescent assay
T1 sequence (P34913 1-555): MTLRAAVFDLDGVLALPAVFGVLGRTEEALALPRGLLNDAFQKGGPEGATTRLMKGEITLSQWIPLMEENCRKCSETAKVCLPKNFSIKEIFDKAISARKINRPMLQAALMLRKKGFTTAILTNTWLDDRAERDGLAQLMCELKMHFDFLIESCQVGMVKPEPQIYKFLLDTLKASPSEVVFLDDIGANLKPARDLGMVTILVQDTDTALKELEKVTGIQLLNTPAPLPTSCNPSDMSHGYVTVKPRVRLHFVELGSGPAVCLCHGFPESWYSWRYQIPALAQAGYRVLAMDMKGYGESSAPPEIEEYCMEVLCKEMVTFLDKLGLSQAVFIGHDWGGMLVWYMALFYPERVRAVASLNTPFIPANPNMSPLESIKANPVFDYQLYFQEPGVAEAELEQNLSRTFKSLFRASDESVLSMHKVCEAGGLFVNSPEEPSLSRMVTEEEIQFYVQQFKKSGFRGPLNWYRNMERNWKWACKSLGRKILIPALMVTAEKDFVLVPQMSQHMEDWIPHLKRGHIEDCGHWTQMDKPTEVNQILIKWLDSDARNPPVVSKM

[2] = cited from earlier work

CC1(C)[C@H]2CC[C@]1(C)C(NC(=O)Nc1ccccc1F)C2 (mixture of isomers) [(S)-2b]
solubility ([1]; pH 7.4, aqueous buffer): 225 ± 25 µM

O=C(NCCCCCCCCNC(=O)NCc1ccco1)NCc1ccco1 [5i]
IC50 (human sEH): 214 nM

O=C(NC1CC2C=CC1C2)N[C@H]1CC[C@H](Oc2ccc(C(=O)O)cc2)CC1 (some centres unmarked) [1a]
Fold more soluble than t-AUCB ([1]; sodium phosphate buffer): 2 fold
Solubility compared with t-TUCB ([1]; sodium phosphate buffer): significantly more soluble

O=C(Nc1ccc(OC(F)(F)F)cc1)N[C@H]1CC[C@H](Oc2ccc(C(=O)O)cc2)CC1 [t-TUCB]
solubility [2]: 5[19] μM
